This note sets out measurements from patent US11497738B2, “Di-substituted pyrazole compounds for the treatment of diseases” (FGH BIOTECH, INC., priority 2016, dated 2022).

This test has as its system SCD1 expression. Briefly: Inhibition assay: qPCR of SCD1 expression in HepG2 cells (Biological Example 1). The format is cell-based. Particulars: Homo sapiens, 24 hours; for inhibition at 10 µM: read-out: Inhibition Percentage (%) 10 μM (SCD1 expression); for inhibition at 1 µM: read-out: Inhibition Percentage (%) 1 μM (SCD1 expression). The protocol:
HepG2 cells were grown in Dulbecco's Modified Eagle Medium (DMEM) containing 5% FBS and antibiotic-antimycotic in a humidified incubator at 37° C. with 5% CO2. All three components were purchased from ThermoFisher Scientific (Catalog numbers are 11995073, 26140079, and 15240062, respectively). Treatments were done in duplicates for each dose of each compound. For control and treated each treatment, 400,000 HepG2 cells were seeded onto 1 well of 24-well plate. After one day in culture, cells were treated with the test compound (1 μM and/or 10 μM, as indicated below in Table 1) for 24 hours in DMEM with 5% FBS. Compounds were diluted using DMSO from 20 mM stocks. Total RNAs were extracted using RNA extraction kit (Cat #: 45001163, Fisher Scientific) or Trizol. If Trizol was used, RNAs were treated with DNase I (cat #: 18068015, ThermoFisher Scientific) before qPCR. RNA concentrations were measured on a Nanodrop. One-step qPCR were performed using SYBR Green One Step qPCR Kit (Cat #: B25002, Biotool). 10 ng RNA was used in each 10-ul reaction. Triplicate reactions were done for each RNA sample. qPCR was performed on an ABI StepOnePlus using the program: Holding stage step 1, 50° C. 3 min, step 2, 95° C. 5 min; Cycling stage (40 cycles) step 1, 95° C. 10 sec, step 2, 60° C. 30 sec. Primer sequence was as follows: SCD1, 5′-[…]-3′/5′-[…]-3′.
All data was measured in HepG2 cells. % inhibition data of SCD1 expression are provided in Table 1. % inhibition at 10 μM is provided as follows: A≥75%; 75%>B≥50%; 50%>C≥10%. % inhibition at 1 μM is provided as follows: A1≥30%; 30%>B1≥2%. NI means no inhibition in the assay at the indicated concentration of compound tested. NT means not tested.
(In general: Quantitative PCR measures a nucleic acid by following its amplification.)

As for `CCCc1cc(-n2cc(-c3ccc(NS(=O)(=O)C4CC4)cc3)cn2)ccn1` [Example 1, N-(4-(1-(2-propylpyridin-4-yl)-1H-pyrazol-4-yl)phenyl)cyclopropanesulfonamide], the inhibition (as a rule, the percentage by which the read-out fell short of the control) at 10 µM was more than 75%.
In the case of `CCCc1cc(-n2cc(-c3ccc(NS(=O)(=O)CC4CC4)cc3)cn2)ccn1` [Example 2, 1-cyclopropyl-N-(4-(1-(2-propylpyridin-4-yl)-1H-pyrazol-4-yl)phenyl)methanesulfonamide], the inhibition at 10 µM is more than 75%.
Same read-out and setting: the same measure for `CCCc1cc(-n2cc(-c3ccc(NCC(C)C)cc3)cn2)ccn1` [Example 3, N-isobutyl-4-(1-(2-propylpyridin-4-yl)-1H-pyrazol-4-yl)aniline]: more than 75%; for `CCCc1cc(-n2cc(-c3ccc(NS(=O)(=O)C(C)C)cc3)cn2)ccn1` [Example 4, N-(4-(1-(2-propylpyridin-4-yl)-1H-pyrazol-4-yl)phenyl)propane-2-sulfonamide]: more than 75%.
Turning to `CCCc1cc(-n2cc(-c3ccc(NS(=O)(=O)C4CC4)nc3)cn2)ccn1` [Example 5, N-(5-(1-(2-propylpyridin-4-yl)-1H-pyrazol-4-yl)pyridin-2-yl)cyclopropanesulfonamide], the inhibition at 10 µM is 10 to 50%.
With `CCCc1cc(-n2cc(-c3ccc(NC(C)C)cc3)cn2)ccn1` [Example 6, N-isopropyl-4-(1-(2-propylpyridin-4-yl)-1H-pyrazol-4-yl)aniline], the inhibition at 10 µM is more than 75%.
`CCCc1cc(-n2cc(-c3ccc(NC(C)C)nc3)cn2)ccn1` [Example 7, N-isopropyl-5-(1-(2-propylpyridin-4-yl)-1H-pyrazol-4-yl)pyridin-2-amine]: the inhibition at 10 µM was more than 75%.
The same measure, in the same setting: next, `CCCc1cc(-n2cc(-c3ccc(NCC(C)C)nc3)cn2)ccn1` [Example 8, N-isobutyl-5-(1-(2-propylpyridin-4-yl)-1H-pyrazol-4-yl)pyridin-2-amine]: more than 75%.
Regarding `CCCc1cc(-n2cc(-c3ccc(NS(C)(=O)=O)cc3Cl)cn2)ccn1` [Example 9, N-(3-chloro-4-(1-(2-propylpyridin-4-yl)-1H-pyrazol-4-yl)phenyl)methanesulfonamide], the inhibition at 1 µM is not below 30% and the inhibition at 10 µM was more than 75%.
The matching figures for `CCCc1cc(-n2cc(-c3ccc(NS(=O)(=O)C4CC4)cc3Cl)cn2)ccn1` [Example 10, N-(3-chloro-4-(1-(2-propylpyridin-4-yl)-1H-pyrazol-4-yl)phenyl)cyclopropanesulfonamide]: not below 30% and more than 75%.
Turning to `CCCc1cc(-n2cc(-c3ccc(NS(=O)(=O)C(F)(F)F)cc3Cl)cn2)ccn1` [Example 11, N-(3-chloro-4-(1-(2-propylpyridin-4-yl)-1H-pyrazol-4-yl)phenyl)-1,1,1-trifluoromethanesulfonamide], the inhibition at 10 µM is 10 to 50%.
Consider `CCCc1cc(-n2cc(-c3ccc(NC(C)C)cc3Cl)cn2)ccn1` [Example 13, 3-chloro-N-isopropyl-4-(1-(2-propylpyridin-4-yl)-1H-pyrazol-4-yl)aniline], for which the inhibition at 1 µM was not below 30% and the inhibition at 10 µM is more than 75%.
For `CCCc1cc(-n2cc(-c3ccc(NCC(C)C)cc3Cl)cn2)ccn1` [Example 14, 3-chloro-N-isobutyl-4-(1-(2-propylpyridin-4-yl)-1H-pyrazol-4-yl)aniline], the inhibition at 1 µM was not below 30% and the inhibition at 10 µM was more than 75%.
In the case of `CCCc1cc(-n2cc(-c3ccc(NCC(C)C)cn3)cn2)ccn1` [Example 15, N-isobutyl-6-(1-(2-propylpyridin-4-yl)-1H-pyrazol-4-yl)pyridin-3-amine], the inhibition at 1 µM lay in the range of 2 to 30% and the inhibition at 10 µM is more than 75%.
On to `CCCc1cc(-n2cc(-c3ccc(NCC4CC4)cn3)cn2)ccn1` [Example 16, N-(cyclopropylmethyl)-6-(1-(2-propylpyridin-4-yl)-1H-pyrazol-4-yl)pyridin-3-amine], for which the inhibition at 1 µM fell in the range of 2 to 30% and the inhibition at 10 µM is more than 75%.
The corresponding values for `CCCc1cc(-n2cc(-c3ccc(NCC4CC4)cc3Cl)cn2)ccn1` [Example 17, 3-chloro-N-(cyclopropylmethyl)-4-(1-(2-propylpyridin-4-yl)-1H-pyrazol-4-yl)aniline] are not below 30% and more than 75%.
For the molecule `CCCc1cc(-n2cc(-c3ccc(NS(=O)(=O)C4CC4)cn3)cn2)ccn1` [Example 18, N-(6-(1-(2-propylpyridin-4-yl)-1H-pyrazol-4-yl)pyridin-3-yl)cyclopropanesulfonamide], the inhibition at 10 µM was more than 75%.
`CCCc1cc(-n2cc(-c3ccc(NS(=O)(=O)CC4CC4)cn3)cn2)ccn1` [Example 19, 1-cyclopropyl-N-(6-(1-(2-propylpyridin-4-yl)-1H-pyrazol-4-yl)pyridin-3-yl)methanesulfonamide]: the inhibition at 1 µM was in the range of 2 to 30% and the inhibition at 10 µM is more than 75%.
Regarding `CCCc1cc(-n2cc(-c3ccc(NS(C)(=O)=O)cn3)cn2)ccn1` [Example 20, N-(6-(1-(2-propylpyridin-4-yl)-1H-pyrazol-4-yl)pyridin-3-yl)methanesulfonamide], the inhibition at 10 µM is 10 to 50%.
With `CCCc1cc(-n2cc(-c3ccc(NC(C)C)cn3)cn2)ccn1` [Example 21, N-isopropyl-6-(1-(2-propylpyridin-4-yl)-1H-pyrazol-4-yl)pyridin-3-amine], the inhibition at 1 µM was in the range of 2 to 30% and the inhibition at 10 µM is more than 75%.
Regarding `CCCc1cc(-n2cc(-c3ccc(NC4CCCC4)cn3)cn2)ccn1` [Example 23, N-cyclopentyl-6-(1-(2-propylpyridin-4-yl)-1H-pyrazol-4-yl)pyridin-3-amine], the inhibition at 1 µM is 2 to 30% and the inhibition at 10 µM is more than 75%.
In the case of `CCCc1cc(-n2cc(-c3ncc(NC(C)C)cc3Cl)cn2)ccn1` [Example 24, 5-chloro-N-isopropyl-6-(1-(2-propylpyridin-4-yl)-1H-pyrazol-4-yl)pyridin-3-amine], the inhibition at 1 µM is not below 30% and the inhibition at 10 µM was more than 75%.
In the case of `CCCc1cc(-n2cc(-c3ncc(NC4CCCC4)cc3Cl)cn2)ccn1` [Example 25, 5-chloro-N-cyclopentyl-6-(1-(2-propylpyridin-4-yl)-1H-pyrazol-4-yl)pyridin-3-amine], the inhibition at 1 µM was not below 30% and the inhibition at 10 µM was more than 75%.
Regarding `CCCc1cc(-n2cc(-c3ncc(NCC(C)C)cc3Cl)cn2)ccn1` [Example 26, 5-chloro-N-isobutyl-6-(1-(2-propylpyridin-4-yl)-1H-pyrazol-4-yl)pyridin-3-amine], the inhibition at 1 µM was not below 30% and the inhibition at 10 µM is more than 75%.
The matching figures for `CCCc1cc(-n2cc(-c3ncc(NCC4CC4)cc3Cl)cn2)ccn1` [Example 27, 5-chloro-N-(cyclopropylmethyl)-6-(1-(2-propylpyridin-4-yl)-1H-pyrazol-4-yl)pyridin-3-amine]: not below 30% and more than 75%.
Consider `CCCc1cc(-n2cc(-c3ncc(NS(=O)(=O)C4CC4)cc3Cl)cn2)ccn1` [Example 28, N-(5-chloro-6-(1-(2-propylpyridin-4-yl)-1H-pyrazol-4-yl)pyridin-3-yl)cyclopropanesulfonamide], for which the inhibition at 1 µM was in the range of 2 to 30% and the inhibition at 10 µM was more than 75%.
